Results on four compounds are retold here after US10040838B2, “CRHR2 peptide agonists and uses thereof” (JANSSEN PHARMACEUTICA NV, priority 2008, dated 2018).

Residues, ends and D or L forms follow the SMILES beside them. No end group written: not given here. *: point of attachment. Succinimide(1-Et,3-yl) = CCN1C(=O)CC(*)C1=O Some results are limits rather than exact numbers.

The target in one assay is T1, CRHR1 (Homo sapiens, UniProt P34998).
T1 sequence (P34998 24-415): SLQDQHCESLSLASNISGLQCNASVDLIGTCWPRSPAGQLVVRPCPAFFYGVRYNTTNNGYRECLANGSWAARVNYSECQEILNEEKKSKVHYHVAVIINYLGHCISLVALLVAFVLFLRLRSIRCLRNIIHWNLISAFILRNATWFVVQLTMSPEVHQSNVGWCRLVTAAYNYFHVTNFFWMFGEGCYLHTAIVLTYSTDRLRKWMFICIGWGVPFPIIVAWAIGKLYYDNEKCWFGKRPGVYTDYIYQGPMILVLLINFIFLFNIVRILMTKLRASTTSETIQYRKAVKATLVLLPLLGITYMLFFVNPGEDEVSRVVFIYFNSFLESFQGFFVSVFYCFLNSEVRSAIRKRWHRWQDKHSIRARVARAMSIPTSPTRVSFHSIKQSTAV
Briefly: Radioligand binding CRHR1 assay, [125I]-(Tyr0)-sauvagine. Also noted: expressed in transfected cells; host or cells: cell membranes. Here is the method: The solution was then homogenized with a Polytron tissue grinder at a setting of 10 and 7×3 s (Brinkmann Instruments, Westbury, N.Y.). The homogenate was centrifuged at 4° Celsius at 800×g for 5 min with the pellet being discarded. […] All binding assays were conducted in 96-well Multiscreen GF/B filter plates (Millipore, Billericay, Mass., U.S.A.) that were pre-soaked in assay buffer with 0.3% PEI for 1 hour. […] The bound radioactivity was separated by filtration using a Multiscreen Resist manifold (Millipore Corp., Billerica, Mass., U.S.A). The filters were washed three times with ice-cold PBS at pH 7.5 and radioactivity retained on the filters was quantified by its liquid scintillation measured by a TopCount counter (Packard BioScience, Boston, Mass., U.S.A). All experiments were performed in triplicate.

In assay [1] the target is T2, human CRHR2 (Homo sapiens, UniProt Q13324).
T2 construct: expressed in transfected cells
T2 sequence (Q13324 1-411): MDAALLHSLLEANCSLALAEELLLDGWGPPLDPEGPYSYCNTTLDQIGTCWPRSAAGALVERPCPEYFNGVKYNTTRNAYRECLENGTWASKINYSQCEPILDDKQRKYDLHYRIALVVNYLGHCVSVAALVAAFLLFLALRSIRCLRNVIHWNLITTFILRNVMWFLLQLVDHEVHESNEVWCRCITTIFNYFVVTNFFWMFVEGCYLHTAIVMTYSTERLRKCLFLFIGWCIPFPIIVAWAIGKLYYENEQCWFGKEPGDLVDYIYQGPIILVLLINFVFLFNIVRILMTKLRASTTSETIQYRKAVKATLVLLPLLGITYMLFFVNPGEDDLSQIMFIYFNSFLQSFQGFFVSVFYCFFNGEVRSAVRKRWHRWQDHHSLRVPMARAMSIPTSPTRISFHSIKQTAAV
Nature of the assay: cAMP assay in h-CRHR2 transfected SK-N-MC cells. Format: cell-based. The settings on record: for Log DR: Table 13, h-SCP control pA50 minus test compound pA50 within same assay batch. The essentials:
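SK-N-MC cells stably expressing human CRHR2 were stimulated with peptides (1 pM-10 μM) for 60 min at 37 °C with 10 μM IBMX, then lysed in 0.5 M HCl. cAMP was quantified by competitive [125I]-cAMP antibody flash-plate assay. Hill-equation fits gave A50/pA50; Log DR was taken relative to h-SCP control in the same batch.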

In assay [2] the target is T2, human CRHR2. Briefly: Radioligand binding, membranes of SK-N-MC cells transfected with human CRHR2, [125I]-anti-sauvagine-30. Here is the method:
The binding profile of h-SCP (SEQ ID NO:1) at CRHR2 was determined in radioligand binding studies in a membrane preparation of SK-N-MC cells stably transfected with human CRHR2 using [^125I]-anti-sauvagine-30 as the radiolabel. […] The solution was then homogenized with a Polytron tissue grinder at a setting of 10 and 7×3 s (Brinkmann Instruments, Westbury, N.Y.). The homogenate was centrifuged at 4° Celsius at 800×g for 5 min with the pellet being discarded. The supernatant was re-centrifuged at 26,892×g for 25 min at 4° Celsius with the final pellet being re-suspended in assay buffer. All binding assays were conducted in 96-well Multiscreen GF/B filter plates (Millipore, Billericay, Mass., U.S.A.) that were pre-soaked in assay buffer with 0.3% PEI for 1 hour. […] The bound radioactivity was separated by filtration using a Multiscreen Resist manifold (Millipore Corp., Billerica, Mass., U.S.A). The filters were washed three times with ice-cold PBS at pH 7.5 and radioactivity retained on the filters was quantified by its liquid scintillation measured by a TopCount counter (Packard BioScience, Boston, Mass., U.S.A). All experiments were performed in triplicate. Data from individual competition curves were expressed as the percentage of specific [^125I]-anti-sauvagine-30 or)[^125I]-([…])-sauvagine binding (B) within each experiment.

[3] abbreviates: Table 15, slope of competition curve.

Consider `CC[C@H](C)[C@H](NC(=O)[C@@H](NC(=O)[C@H](CC(=O)O)NC(=O)[C@H](CC(C)C)NC(=O)[C@H](CC(C)C)NC(=O)[C@H](CC(C)C)NC(=O)[C@H](CCCNC(=N)N)NC(=O)[C@H](CC(N)=O)NC(=O)[C@H](CC(N)=O)NC(=O)[C@H](C)NC(=O)[C@H](C)NC(=O)[C@H](CCC(N)=O)NC(=O)[C@H](CCC(N)=O)NC(=O)[C@H](CCCCN)NC(=O)[C@H](CCC(=O)O)NC(=O)[C@H](CCCCN)NC(=O)[C@H](CCC(=O)O)NC(=O)[C@H](CCC(N)=O)NC(=O)[C@H](CCCCN)NC(=O)[C@H](CCC(=O)O)NC(=O)[C@@H](NC(=O)[C@H](CCC(=O)O)NC(=O)[C@@H](NC(=O)[C@H](CCSC)NC(=O)[C@H](CCCCN)NC(=O)[C@H](CCCNC(=N)N)NC(=O)[C@H](CC(C)C)NC(=O)[C@H](CC(C)C)NC(=O)[C@H](Cc1c[nH]cn1)NC(=O)[C@H](N)Cc1ccccc1)[C@@H](C)CC)[C@@H](C)CC)[C@@H](C)O)C(N)=O` [SEQ ID NO: 118, FHLLRKMIEIEKQEKEKQQAANNRLLLDTI-NH2], for which the Ki at CRHR1 was 1.55 µM; on human CRHR2 [2], 0.0166 µM. The “CRHR1 nH” value at CRHR1 (setting [3]) came to 1.00 ± 0.49. The Kb on human CRHR2 [1] was 0.0151 µM. Moreover, the “CRHR2 nH” value at human CRHR2 [2] (setting [3]) was determined as 1.15 ± 0.12.
As for `CC[C@H](C)[C@H](NC(=O)[C@H](CCC(N)=O)NC(=O)[C@H](C)NC(=O)[C@H](CCSC)NC(=O)[C@H](CC(C)C)NC(=O)[C@H](Cc1c[nH]cn1)NC(=O)[C@H](C)NC(=O)[C@H](CC(N)=O)NC(=O)[C@H](C)NC(=O)[C@H](C)NC(=O)[C@H](C)NC(=O)[C@H](CCC(N)=O)NC(=O)[C@H](C)NC(=O)[C@H](CCCNC(=N)N)NC(=O)[C@H](CC(C)C)NC(=O)[C@H](CC(N)=O)NC(=O)[C@H](CSC1CC(=O)N(CC)C1=O)NC(=O)[C@H](C)NC(=O)[C@H](CCCCN)NC(=O)[C@H](C)NC(=O)[C@@H](NC(=O)[C@H](CC(N)=O)NC(=O)[C@H](Cc1ccccc1)NC(=O)[C@H](CC(C)C)NC(=O)[C@H](CC(C)C)NC(=O)[C@H](CC(N)=O)NC(=O)[C@H](CCSC)NC(=O)[C@@H](NC(=O)[C@H](CC(N)=O)NC(=O)[C@@H](NC(=O)[C@@H]1CCCN1C(=O)[C@@H](NC(=O)[C@H](CC(=O)O)NC(=O)[C@H](CC(C)C)NC(=O)[C@H](CO)NC(=O)[C@H](CC(C)C)NC(=O)[C@@H](NC(=O)[C@H](Cc1ccccc1)NC(=O)[C@H](CCCCN)NC(=O)[C@@H](N)[C@@H](C)O)[C@@H](C)O)C(C)C)[C@@H](C)O)[C@@H](C)CC)[C@@H](C)CC)C(N)=O` (some centres unmarked) [SEQ ID NO: 50, TKFTLSLDVPTNIMNLLFNIAKAC(-NES)N LRAQA AANAH LMAQI-NH2] (H-TKFTLSLDVPTNIMNLLFNIAKAC(Succinimide(1-Et,3-yl))NLRAQAAANAHLMAQI-NH2; N-terminus assumed), at human CRHR2 [1], the “Log DR” value is −0.01.
Take “TKFTLSLDVCTNIMNLLFNIAKAKNLRAQAAANAHLMAQI-NH2 [SEQ ID NO: 11, TKFTLSLDVCTNIMNLLFNIAKAKNLRAQAAANAHLMAQI-NH2]”: the “Log DR” value on human CRHR2 [1] amounted to 0.82.
As to “TKFTLSLDVPTNIMNLLFNIAKAKNLRAQAAACAHLMAQI-NH2 [SEQ ID NO: 34, TKFTLSLDVPTNIMNLLFNIAKAKNLRAQAAACAHLMAQI-NH2]”, the “Log DR” value on human CRHR2 [1] is on record as more than 3.19.

A word on the Ki: it is a dissociation constant, usually derived from enzyme kinetics or from competition with a known ligand.
